Here are results for 18 substances from US20040127446A1 (priority 1992, published 2004).

[invAb] = 3' inverted deoxyabasic cap; [2NH2-N] = 2'-deoxy-2'-amino ribonucleotide (N: the base); [amino-N] = 2'-deoxy-2'-amino nucleotide (N: the base); [I] = hypoxanthine (inosine); m = 2'-O-methyl; r = 2'-OH (RNA)

The test system of the first data set is plus strand HCV RNA. The class given is biochemical, Hepatitis C virus. The settings on record: plus strand (+) HCV site, 50 mM Tris-Cl, pH 8.0, 40 mM Mg2+ at 37°, trace substrate, enzymatic nucleic acid concentration of 500 nM or greater.
Regarding “22779 (UGAGGAACUGAUGAGGCCGUUAGGCCGAANGUGGAG; ribozyme; 2'-O-methyl at 1, 2, 3, 4, 5, 6, 7, 15, 16, 17, 18, 19, 20, 21, 22, 23, 24, 25, 26, 31, 32, 33, 34, 35, 36, [I] at 30, [invAb] at 3' end, other sugars and backbone not given here) [compound 22779]”, the “% Substrate Cleaved in 3 hours” value was 82.22%.

For the substance “22720 (GGAGAGGUGAUGGCAUGCACUAUGCGCGAUAUACA; sugars from the 5' end mmmmmmmmrrrmmmmmrmmmmmmmmmrmmmmmmmm, [invAb] at 3' end, backbone not given here) [compound 22720]”, the “% Substrate Cleaved in 3 hours” value worked out at 77.74%.

For “22974 (CUGGUGAGGCTAGCTACAACGAGGAGGCUN; 3' inverted abasic cap (B); misc_feature (30)..(30): n stands for inverted deoxyabasic derivative; misc_feature (1)..(7): 2'-O-Methyl; misc_feature (23)..(29): 2'-O-Methyl) [compound 22974]”, the “% Substrate Cleaved in 3 hours” value came out at 57.82%.

The subject of another data set is minus strand HCV RNA. It counts as biochemical, Hepatitis C virus. The settings on record: minus strand (−) HCV site, 50 mM Tris-Cl, pH 8.0, 40 mM Mg2+ at 37°, trace substrate, enzymatic nucleic acid concentration of 500 nM or greater.
Regarding “22754 (AGGAGUAGCCGAAAGGCGAGUGAGGUCUGUGGAGG; 2'-O-methyl at 1, 2, 3, 4, 5, 6, 7, 8, 9, 10, 11, 12, 13, 14, 15, 16, [2NH2-N] at 17, 27, [invAb] at 3' end, other sugars and backbone not given here) [compound 22754]”, the “% Substrate Cleaved in 3 hours” value was 50.40%.

In the case of “22976 (AAGAGGAGGCTAGCTACAACGAGCGGCGAN; 3' inverted abasic cap (B); Description of Artificial Sequence: Nucleic Acid; misc_feature (30)..(30): n stands for inverted deoxyabasic derivative; misc_feature (1)..(7): 2'-O-Methyl; misc_feature (23)..(29): 2'-O-Methyl) [compound 22976]”, the “% Substrate Cleaved in 3 hours” value amounted to 66.06%.

For “22979 (AGGAGUAGGCTAGCTACAACGAGUGGAGGN; 3' inverted abasic cap (B); Description of Artificial Sequence: Nucleic Acid; misc_feature (30)..(30): n stands for inverted deoxyabasic derivative; misc_feature (1)..(7): 2'-O-Methyl; misc_feature (23)..(29): 2'-O-Methyl) [compound 22979]”, the “% Substrate Cleaved in 3 hours” value is listed as 85.53%.

Regarding “22725 (GGAAAAGUGAUGGCAUGCACUAUGCGCGAACAGGA; sugars from the 5' end mmmmmmmmrrrmmmmmrmmmmmmmmmrmmmmmmmm, [invAb] at 3' end, backbone not given here) [compound 22725]”, the “% Substrate Cleaved in 3 hours” value was 94.66%.

As to “22977 (AAGGAGAGGCTAGCTACAACGAGAAGGCGN; 3' inverted abasic cap (B); Description of Artificial Sequence: Nucleic Acid; misc_feature (30)..(30): n stands for inverted deoxyabasic derivative; misc_feature (1)..(7): 2'-O-Methyl; misc_feature (23)..(29): 2'-O-Methyl) [compound 22977]”, the “% Substrate Cleaved in 3 hours” value worked out at 71.28%.

With “22950 (AGGAUGACUGAUGAGGCCGUUAGGCCGAAAGAGAGG; 2'-O-methyl at 1, 2, 3, 4, 5, 6, 7, 15, 16, 17, 18, 19, 20, 21, 22, 23, 24, 25, 26, 31, 32, 33, 34, 35, 36, [invAb] at 3' end, other sugars and backbone not given here) [compound 22950]”, the “% Substrate Cleaved in 3 hours” value is reported as 83.43%.

Take “22752 (AAGAGGAGCCGAAAGGCGAGUGAGGUCUGCGGCGA; 2'-O-methyl at 1, 2, 3, 4, 5, 6, 7, 8, 9, 10, 11, 12, 13, 14, 15, 16, [amino-N] at 17, 27, [invAb] at 3' end, other sugars and backbone not given here) [compound 22752]”: the “% Substrate Cleaved in 3 hours” value came to 27.83%.

With “22755 (CGAAGCAGCCGAAAGGCGAGUGAGGUCUAUGUGGA; 2'-O-methyl at 1, 2, 3, 4, 5, 6, 7, 8, 9, 10, 11, 12, 13, 14, 15, 16, [2NH2-N] at 17, 27, [invAb] at 3' end, other sugars and backbone not given here) [compound 22755]”, the “% Substrate Cleaved in 3 hours” value worked out at 81.10%.

In the case of “22978 (AGGAGGAGGCTAGCTACAACGAGAGAGAGN; 3' inverted abasic cap (B); Description of Artificial Sequence: Nucleic Acid; misc_feature (1)..(7): 2'-O-Methyl; misc_feature (23)..(29): 2'-O-Methyl; misc_feature (30)..(30): n stands for inverted deoxyabasic derivative) [compound 22978]”, the “% Substrate Cleaved in 3 hours” value is reported as 61.60%.

Regarding “22780 (GACACUGCUGAUGAGGCCGUUAGGCCGAANACACCA; ribozyme; 2'-O-methyl at 1, 2, 3, 4, 5, 6, 7, 15, 16, 17, 18, 19, 20, 21, 22, 23, 24, 25, 26, 31, 32, 33, 34, 35, 36, [I] at 30, [invAb] at 3' end, other sugars and backbone not given here) [compound 22780]”, the “% Substrate Cleaved in 3 hours” value was determined as 87.33%.

Turning to “22784 (UGGAUGACUGAUGAGGCCGUUAGGCCGAANCUGUUG; 2'-O-methyl at 1, 2, 3, 4, 5, 6, 7, 15, 16, 17, 18, 19, 20, 21, 22, 23, 24, 25, 26, 31, 32, 33, 34, 35, 36, [I] at 30, [invAb] at 3' end, other sugars and backbone not given here) [compound 22784]”, the “% Substrate Cleaved in 3 hours” value is 90.41%.

Consider “22782 (GGAUGAGCUGAUGAGGCCGUUAGGCCGAANAGAGGU; 2'-O-methyl at 1, 2, 3, 4, 5, 6, 7, 15, 16, 17, 18, 19, 20, 21, 22, 23, 24, 25, 26, 31, 32, 33, 34, 35, 36, [I] at 30, [invAb] at 3' end, other sugars and backbone not given here) [compound 22782]”, for which the “% Substrate Cleaved in 3 hours” value came to 78.83%.

As for “22726 (AGAAGAAUGAUGGCAUGCACUAUGCGCGACGAGGA; sugars from the 5' end mmmmmmmmrrrmmmmmrmmmmmmmmmrmmmmmmmm, [invAb] at 3' end, backbone not given here) [compound 22726]”, the “% Substrate Cleaved in 3 hours” value amounted to 82.14%.

As for “22728 (GGUAGGUUGAUGGCAUGCACUAUGCGCGAAGUGGC; sugars from the 5' end mmmmmmmmrrrmmmmmrmmmmmmmmmrmmmmmmmm, [invAb] at 3' end, backbone not given here) [compound 22728]”, the “% Substrate Cleaved in 3 hours” value was 81.06%.

“22783 (UGUGCAGCUGAUGAGGCCGUUAGGCCGAANGAUGAA; 2'-O-methyl at 1, 2, 3, 4, 5, 6, 7, 15, 16, 17, 18, 19, 20, 21, 22, 23, 24, 25, 26, 31, 32, 33, 34, 35, 36, [I] at 30, [invAb] at 3' end, other sugars and backbone not given here) [compound 22783]”: the “% Substrate Cleaved in 3 hours” value was determined as 86.93%.
